25 compounds from US8048881B2, “Pyrimidine derivatives and their use as P2Y12 receptor antagonists” (Actelion Pharmaceuticals Ltd., priority 2005, dated 2011) can be followed below.

The test addresses T1, human P2Y12 receptor (Homo sapiens, UniProt Q9H244).
T1 construct: expressed in transfected cells; host or cells: Chinese Hamster Ovary (CHO) cells
Nature of the test: P2Y12 receptor binding assay. As to conditions: CHO cells with recombinant expression of the human P2Y12 receptor; tritium-labeled 2-methyl-S-ADP; incubation at room temperature for 2 hours. As for the experimental part: P2Y12 Receptor Binding Assay
Chinese Hamster Ovary (CHO) cells with recombinant expression of the human P2Y12 receptor were cultured in 24 well cell-culture plates. Cells were washed three times with binding buffer (50 mM Tris pH 7.4, 100 mM NaCl, 1 mM EDTA, 0.5% BSA). The cells were then incubated with 0.5 ml per well binding buffer containing tritium-labeled 2-methyl-thio-adenosine 5′-diphosphate (2-methyl-S-ADP) (between 100'000 and 300'000 dpm per well) and various concentrations of test compounds. After incubation at room temperature for 2 hours, cells were washed three times with binding buffer. Then, cells were solubilized by addition of 0.5 ml solubilization buffer (SDS, NaOH, EDTA). The content of each well was then transferred into beta-counter vials and 2.0 ml of Ultima Gold Scintillation liquid was added.

Where a name gives a salt, the structure may show the parent alone.

T1 sequence (Q9H244 whole entry): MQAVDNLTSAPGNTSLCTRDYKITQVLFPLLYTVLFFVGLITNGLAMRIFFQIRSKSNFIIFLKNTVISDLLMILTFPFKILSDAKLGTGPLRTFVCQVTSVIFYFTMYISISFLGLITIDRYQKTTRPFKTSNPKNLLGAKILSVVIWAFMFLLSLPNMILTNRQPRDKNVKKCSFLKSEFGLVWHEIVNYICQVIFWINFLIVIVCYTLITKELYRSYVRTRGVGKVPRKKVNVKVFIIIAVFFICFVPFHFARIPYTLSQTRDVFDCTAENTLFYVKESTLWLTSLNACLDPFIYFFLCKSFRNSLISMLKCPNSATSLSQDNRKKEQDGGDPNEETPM

On to `CCOC(=O)N1CCN(C(=O)[C@H](CCC(=O)O)NC(=O)c2cc(-c3cn[nH]c3)nc(-c3ccccc3)n2)CC1` [Example 396, 4-((S)-4-carboxy-2-{[2-phenyl-6-(1H-pyrazol-4-yl)-pyrimidine-4-carbonyl]-amino}-butyryl)-piperazine-1-carboxylic acid ethyl ester], for which the IC50 was 73 nM. As for `CCOC(=O)N1CCN(C(=O)[C@H](Cc2ccc(C(=O)O)cc2)NC(=O)c2cc(OC3CCCC3)nc(-c3ccccc3)n2)CC1` [Example 21, 4-{(S)-3-(4-carboxy-phenyl)-2-[(6-cyclopentyloxy-2-phenyl-pyrimidine-4-carbonyl)-amino]-propionyl}-piperazine-1-carboxylic acid ethyl ester], the figure is 201 nM; as for `CCOC(=O)N1CCN(C(=O)[C@H](CCC(=O)O)NC(=O)c2cc(-c3cccc(C)c3)nc(-c3ccccc3)n2)CC1` [Example 94, 4-{(S)-4-carboxy-2-[(2-phenyl-6-m-tolyl-pyrimidine-4-carbonyl)-amino]-butyryl}-piperazine-1-carboxylic acid ethyl ester], 200 nM; as for `CCOC(=O)N1CCN(C(=O)[C@H](CCC(=O)O)NC(=O)c2cc(N3CCOCC3)nc(-c3ccccc3)n2)CC1` [Example 225, 4-{(S)-4-carboxy-2-[(6-morpholin-4-yl-2-phenyl-pyrimidine-4-carbonyl)-amino]-butyryl}-piperazine-1-carboxylic acid ethyl ester formate salt], 100 nM. Turning to `CCOC(=O)N1CCN(C(=O)[C@H](CCC(=O)O)NC(=O)c2cc(OC3CCCC3)nc(-c3ccccc3)n2)CC1` [Example 1, 4-{(S)-4-carboxy-2-[(6-cyclopentyloxy-2-phenyl-pyrimidine-4-carbonyl)-amino]-butyryl}-piperazine-1-carboxylic acid ethyl ester], the IC50 came out at 117 nM. The value for `CCOC(=O)N1CCN(C(=O)C(Cc2cccc(OCC(=O)O)c2)NC(=O)c2cc(OC3CCCC3)nc(-c3ccccc3)n2)CC1` (stereo not shown) [Example 31, 4-{3-(3-carboxymethoxy-phenyl)-2-[(6-cyclopentyloxy-2-phenyl-pyrimidine-4-carbonyl)-amino]-propionyl}-piperazine-1-carboxylic acid ethyl ester] was 592 nM; that for `CCOC(=O)N1CCN(C(=O)[C@H](CCc2nnn[nH]2)NC(=O)c2cc(OC3CCCC3)nc(-c3ccccc3)n2)CC1` [Example 19, 4-[(S)-2-[(6-cyclopentyloxy-2-phenyl-pyrimidine-4-carbonyl)-amino]-4-(1H-tetrazol-5-yl)-butyryl]-piperazine-1-carboxylic acid ethyl ester] was 127 nM; that for `CCOC(=O)N1CCN(C(=O)[C@H](CCC(=O)O)NC(=O)c2cc(C)nc(-c3cccc(C)c3)n2)CC1` [Example 105, 4-{(S)-4-carboxy-2-[(6-methyl-2-m-tolyl-pyrimidine-4-carbonyl)-amino]-butyryl}-piperazine-1-carboxylic acid ethyl ester] was 940 nM. As for `CCOC(=O)CCNc1cc(C(=O)N[C@@H](CCC(=O)O)C(=O)N2CCN(C(=O)OCC)CC2)nc(-c2ccccc2)n1` [Example 59, 4-((S)-4-carboxy-2-{[6-(2-ethoxycarbonyl-ethylamino)-2-phenyl-pyrimidine-4-carbonyl]-amino}-butyryl)-piperazine-1-carboxylic acid ethyl ester triflate salt], the figure is 276 nM; as for `CCOC(=O)N1CCN(C(=O)[C@H](CO)NC(=O)c2cc(OC3CCCC3)nc(-c3ccccc3)n2)CC1` [Example 10, 4-{(S)-2-[(6-cyclopentyloxy-2-phenyl-pyrimidine-4-carbonyl)-amino]-3-hydroxy-propionyl}-piperazine-1-carboxylic acid ethyl ester], 307 nM; as for `CCOC(=O)N1CCN(C(=O)[C@H](CCC(=O)O)NC(=O)c2cc(SC3CCCC3)nc(-c3ccccc3)n2)CC1` [Example 249, 4-{(S)-4-carboxy-2-[(6-cyclopentylsulfanyl-2-phenyl-pyrimidine-4-carbonyl)-amino]-butyryl}-piperazine-1-carboxylic acid ethyl ester], 101 nM. Regarding `CCOC(=O)N1CCN(C(=O)[C@H](CCC(=O)O)NC(=O)c2cc(C#CC(O)CC)nc(-c3ccccc3)n2)CC1` (stereo partly drawn) [Example 261, 4-((S)-4-carboxy-2-{[6-(3-hydroxy-pent-1-ynyl)-2-phenyl-pyrimidine-4-carbonyl]-amino}-butyryl)-piperazine-1-carboxylic acid ethyl ester], the IC50 is 126 nM. As for `CC(C)(C)NC(=O)N1CCN(C(=O)[C@H](CCC(=O)O)NC(=O)c2cc(OC3CCCC3)nc(-c3ccccc3)n2)CC1` [Example 435, (S)-5-(4-tert-butylcarbamoyl-piperazin-1-yl)-4-[(6-cyclopentyloxy-2-phenyl-pyrimidine-4-carbonyl)-amino]-5-oxo-pentanoic acid], the figure is 94 nM; as for `CCOC(=O)N1CCN(C(=O)[C@H](CCC(=O)O)NC(=O)c2cc(N)nc(-c3ccccc3)n2)CC1` [Example 333, 4-{(S)-2-[(6-amino-2-phenyl-pyrimidine-4-carbonyl)-amino]-4-carboxy-butyryl}-piperazine-1-carboxylic acid ethyl ester triflate salt], 161 nM.

Take `CC(C)OC(=O)N1CCN(C(=O)[C@H](CCC(=O)O)NC(=O)c2cc(OC3CCCC3)nc(-c3ccccc3)n2)CC1` [Example 38, 4-{(S)-4-carboxy-2-[(6-cyclopentyloxy-2-phenyl-pyrimidine-4-carbonyl)-amino]-butyryl}-piperazine-1-carboxylic acid isopropyl ester]: the IC50 is 95 nM. The value for `CCOC(=O)N1CCN(C(=O)[C@H](CCC(=O)O)NC(=O)c2cc(CCC(C)(C)O)nc(-c3ccccc3)n2)CC1` [Example 266, 4-((S)-4-carboxy-2-{[6-(3-hydroxy-3-methyl-butyl)-2-phenyl-pyrimidine-4-carbonyl]-amino}-butyryl)-piperazine-1-carboxylic acid ethyl ester] was 273 nM. Consider `CCOC(=O)N1CCN(C(=O)[C@H](CCC(=O)O)NC(=O)c2cc(CSC3CCCC3)nc(-c3ccccc3)n2)CC1` [Example 378, 4-{(S)-4-carboxy-2-[(6-cyclopentylsulfanylmethyl-2-phenyl-pyrimidine-4-carbonyl)-amino]-butyryl}-piperazine-1-carboxylic acid ethyl ester], for which the IC50 was found to be 157 nM.

Regarding `CCOC(=O)N1CCN(C(=O)[C@H](CCC(=O)O)NC(=O)c2cc(SC3CCCCC3)nc(-c3ccccc3)n2)CC1` [Example 251, 4-{(S)-4-carboxy-2-[(6-cyclohexylsulfanyl-2-phenyl-pyrimidine-4-carbonyl)-amino]-butyryl}-piperazine-1-carboxylic acid ethyl ester], the IC50 amounted to 624 nM. The value for `CCCSc1cc(C(=O)N[C@@H](CCC(=O)O)C(=O)N2CCN(C(=O)OCC)CC2)nc(-c2ccccc2)n1` [Example 247, 4-{(S)-4-carboxy-2-[(2-phenyl-6-propylsulfanyl-pyrimidine-4-carbonyl)-amino]-butyryl}-piperazine-1-carboxylic acid ethyl ester] was 142 nM; that for `CCOC(=O)N1CCN(C(=O)[C@H](CCC(=O)O)NC(=O)c2cc(NCCCN3CCOCC3)nc(-c3ccccc3)n2)CC1` [Example 66, 4-((S)-4-carboxy-2-{[6-(3-morpholin-4-yl-propylamino)-2-phenyl-pyrimidine-4-carbonyl]-amino}-butyryl)-piperazine-1-carboxylic acid ethyl ester triflate salt] was 202 nM; that for `CCOC(=O)N1CCN(C(=O)[C@H](CCC(=O)O)NC(=O)c2cc(OCC3CC3)nc(-c3ccccc3)n2)CC1` [Example 27, 4-{(S)-4-carboxy-2-[(6-cyclopropylmethoxy-2-phenyl-pyrimidine-4-carbonyl)-amino]-butyryl}-piperazine-1-carboxylic acid ethyl ester] was 193 nM. Turning to `CCOC(=O)N1CCN(C(=O)[C@H](CCC(=O)O)NC(=O)c2cc(N3CCC[C@@H]3COC)nc(-c3ccccc3)n2)CC1` [Example 324, 4-((S)-4-carboxy-2-{[6-((R)-2-methoxymethyl-pyrrolidin-1-yl)-2-phenyl-pyrimidine-4-carbonyl]-amino}-butyryl)-piperazine-1-carboxylic acid ethyl ester formate salt], the IC50 worked out at 61 nM. As for `CCOC(=O)N1CCN(C(=O)[C@H](CCC(=O)O)NC(=O)c2cc(CS(=O)(=O)CC)nc(-c3ccccc3)n2)CC1` [Example 375, 4-{(S)-4-carboxy-2-[(6-ethanesulfonylmethyl-2-phenyl-pyrimidine-4-carbonyl)-amino]-butyryl}-piperazine-1-carboxylic acid ethyl ester], the figure is 108 nM; as for `CCOC(=O)N1CCN(C(=O)[C@H](CCC(=O)O)NC(=O)c2cc(OC3CCCC3)nc(-c3ccccc3)n2)CC1C` (stereo partly drawn) [Example 46, 4-{(S)-4-carboxy-2-[(6-cyclopentyloxy-2-phenyl-pyrimidine-4-carbonyl)-amino]-butyryl}-2-methyl-piperazine-1-carboxylic acid ethyl ester], 510 nM; as for `CCOC(=O)N1CCN(C(=O)[C@H](CCC(=O)O)NC(=O)c2cc(N[C@H]3CC[C@H](O)CC3)nc(-c3ccccc3)n2)CC1` [Example 243, 4-((S)-4-carboxy-2-{[6-(trans-4-hydroxy-cyclohexylamino)-2-phenyl-pyrimidine-4-carbonyl]-amino}-butyryl)-piperazine-1-carboxylic acid ethyl ester], 223 nM.
